System: transcription from VEGF promoter
Assay: VEGF transcription-suppressing activity, VEGF-PLAP reporter in U251/1-8 cell
Format: cell-based
Conditions: Homo sapiens, U-251, 18 h, read-out: IC50 values of VEGF transcription-suppressing activity (range given)
Excerpt: In order to prepare reporter system reflecting transcription from VEGF promoter, VEGF promoter sequence was cloned, and inserted in secretory alkali phosphatase (PLAP) vector to construct reporter vector.
In order to obtain the promoter region of human VEGF, VEGF genome was cloned from phage library. PCR primers having the sequences described in Sequence Numbers 1 and 2 were designed based on VEGF cDNA (GenBank accession number: X62568) and a fragment having about 340 bp was obtained by carrying out PCR. Human genome phage library (Human genomic library, Clontech Co.) was screened using this as a probe to obtain pUC18-VEGFA containing about 5.4 kb of VEGF 5′ flanking region. The pUC18-VEGFA was cleaved by KpnI/NheI, VEGF promoter region of about 2.3 kb obtained was inserted in the multi cloning site KpnI/NheI of secretory alkali phosphatase (PLAP) vector (Goto et al, Mol. Pharmacol., 49, 860-873, 1996), and thus, VEGF-PLAP vector was constructed.
The above-mentioned VEGF-PLAP vector was introduced in the U251 cell cultured in the DULBECCO-modified eagle medium (DMEM; manufactured by SIGMA Co., Ltd.) containing 10% fetal calf serum, and cultured in the presence of 1 mg/ml G418 (Merck Co.) to establish G418 resistant stable clone (U251/1-8 cell).
It was confirmed that U251/1-8 cell secreted PLAP under low oxygen (2% O2 incubator) in the same manner as in the report (Cell. Mol. Biol. Res. 40, 35-39, 1994) and was a reporter system reflecting the transcription from VEGF promoter. The screening of the compound suppressing VEGF production which was induced by low oxygen stimulation was carried out below using the clone.
In order to remove the influence of alkaline phosphates in serum, U251/1-8 cell was rinsed twice with the adequate amount of PBS (Phosphate buffered saline), diluted in the DMEM medium containing 10% of serum in which alkaline phosphates was inactivated by the treatment of 60° C. for 20 min., and dispensed in 96-well plates by 4×10^4 cells/180 μl.
After culturing at 37° C. overnight in a CO2 incubator (5% CO2), 20 μL of the above-mentioned incubation solution containing the test compound diluted with 3-fold succession was added, and then they were incubated in a low oxygen ([…]) incubator for 18 hours. With respect to the PLAP activity in the culture supernatants, 10 μl of the supernatants was added to 50 μl of 0.28 M Na2CO3—NaHCO3 buffer solution (pH 10.0, 8.0 mM MgSO4), and finally 50 μl of alkaline phosphatase substrate (LUMISTEIN, Genomescience Co.) was added. After reacting for one hour, the alkaline phosphatase activity of the PLAP was measured by detecting the chemical luminescence by a micro plate reader (Perkin-Elmer Co.).
The PLAP activity under usual oxygen was set as 0%, the PLAP activity of cell which was treated under low oxygen was set as 100%, and the concentration suppressing the PLAP activity by 50% was set as the IC50 value of PLAP.

Structure (SMILES) | IC50 [nM]
CCC(OC)C(C)C1OC1C(O)C(C)/C=C/C=C(\C)C1OC(=O)CC(O)CCC(C)(O)C(OC(C)=O)/C=C/C1C (centres unmarked) [B9, (8E,12E,14E)-7-Acetoxy-3,6,17-trihydroxy-21-methoxy-6,10,12,16,20-pentamethyl-18,19-epoxytricosa-8,12,14-trien-11-olide] | 0.5 to 100

Same assay, conditions: Homo sapiens, U-251; U251/1-8 cell, PLAP activity, low oxygen 18 hours; read-out: IC50 values of VEGF transcription-suppressing activity (range given)

Structure (SMILES) | IC50 [nM]
CCC(O)C(C)C1OC1CC(C)/C=C/C=C(\C)C1OC(=O)CC(O)/C=C/C(C)(O)C(OC(C)=O)/C=C/C1C (centres unmarked) [11107H] | 1 to 100
CCC(O)C(C)C1OC1C(O)C(C)/C=C/C=C(\C)C1OC(=O)CC(O)CCC(C)(O)C(OC(C)=O)/C=C/C1C (centres unmarked) [11107P] | 1 to 100
CCC(O)C(C)C(Cl)C(O)CC(C)/C=C/C=C(\C)C1OC(=O)CC(O)CCC(C)(O)C(OC(C)=O)/C=C/C1C (centres unmarked) [B1-1, (8E,12E,14E)-7-Acetoxy-19-chloro-3,6,18,21-tetrahydroxy-6,10,12,16,20-pentamethyltricosa-8,12,14-trien-11-olide] | 0.5 to 100
CCC(O)C(C)C(O)C(Cl)CC(C)/C=C/C=C(\C)C1OC(=O)CC(O)CCC(C)(O)C(OC(C)=O)/C=C/C1C (centres unmarked) [B1-2, (8E,12E,14E)-7-acetoxy-18-chloro-3,6,19,21-tetrahydroxy-6,10,12,16,20-pentamethyltricosa-8,12,14-trien-11-olide] | 0.5 to 100
CCC(O)C(C)C(O)C(Br)CC(C)/C=C/C=C(\C)C1OC(=O)CC(O)CCC(C)(O)C(OC(C)=O)/C=C/C1C (centres unmarked) [B2-1, (8E,12E,14E)-7-Acetoxy-18-bromo-3,6,19,21-tetrahydroxy-6,10,12,16,20-pentamethyltricosa-8,12,14-trien-11-olide] | 0.5 to 100
CCC(O)C(C)C(Br)C(O)CC(C)/C=C/C=C(\C)C1OC(=O)CC(O)CCC(C)(O)C(OC(C)=O)/C=C/C1C (centres unmarked) [B2-2, (8E,12E,14E)-7-acetoxy-19-bromo-3,6,18,21-tetrahydroxy-6,10,12,16,20-pentamethyltricosa-8,12,14-trien-11-olide] | 0.5 to 100
CCC(O)C(C)C(I)C(O)CC(C)/C=C/C=C(\C)C1OC(=O)CC(O)CCC(C)(O)C(OC(C)=O)/C=C/C1C (centres unmarked) [B3-1, (8E,12E,14E)-7-Acetoxy-3,6,18,21-tetrahydroxy-19-iodo-6,10,12,16,20-pentamethyltricosa-8,12,14-trien-11-olide] | 0.5 to 100
CCC(O)C(C)C(O)C(I)CC(C)/C=C/C=C(\C)C1OC(=O)CC(O)CCC(C)(O)C(OC(C)=O)/C=C/C1C (centres unmarked) [B3-2, (8E,12E,14E)-7-acetoxy-3,6,19,21-tetrahydroxy-18-iodo-6,10,12,16,20-pentamethyltricosa-8,12,14-trien-11-olide] | 0.5 to 100
CCC(OC)C(C)C1OC1CC(C)/C=C/C=C(\C)C1OC(=O)CC(O)CCC(C)(O)C(OC(C)=O)/C=C/C1C (centres unmarked) [B8-1, (8E,12E,14E)-7-Acetoxy-3,6-dihydroxy-21-methoxy-6,10,12,16,20-pentamethyl-18,19-epoxytricosa-8,12,14-trien-11-olide] | 0.5 to 100
CCC(OC)C(C)C1OC1CC(C)/C=C/C=C(\C)C1OC(=O)CC(O)CCC(C)(OC)C(OC(C)=O)/C=C/C1C (centres unmarked) [B8-2, (8E,12E,14E)-7-acetoxy-3-hydroxy-6,21-dimethoxy-6,10,12,16,20-pentamethyl-18,19-epoxytricosa-8,12,14-trien-11-olide] | 0.5 to 100
CCC(O)C(C)C1OC1CC(C)/C=C/C=C(\C)C1OC(=O)CC(OC)CCC(C)(O)C(OC(C)=O)/C=C/C1C (centres unmarked) [B8-4, (8E,12E,14E)-7-acetoxy-6,21-dihydroxy-3-methoxy-6,10,12,16,20-pentamethyl-18,19-epoxytricosa-8,12,14-trien-11-olide] | 0.5 to 100
CCC(O)C(C)C1OC1CC(C)/C=C/C=C(\C)C1OC(=O)CC(O)CCC(C)(OC)C(OC(C)=O)/C=C/C1C (centres unmarked) [B8-5, (8E,12E,14E)-7-acetoxy-3,21-dihydroxy-6-methoxy-6,10,12,16,20-pentamethyl-18,19-epoxytricosa-8,12,14-trien-11-olide] | 0.5 to 100

Same assay, conditions: Homo sapiens, U-251; U251/1-8 cell, PLAP activity, low oxygen 18 hours; read-out: VEGF transcription suppressing activity (IC50: nM)

Structure (SMILES) | IC50 [nM]
CCC(O)C(C)C1OC1CC(C)/C=C/C=C(\C)C1OC(=O)CC(O)/C=C/C(C)(O)C(OC(C)=O)/C=C/C1C (centres unmarked) [11107H] | 3.1
